Reference: patent publication US20110028463A1, “AMIDE COMPOUNDS” (Astellas Pharma Inc., priority 2007, published 2011)

What follows are compounds tested against T1, rat EP4 receptor (Rattus norvegicus, UniProt P43114) (assay: Evaluation test on rat EP4 receptor affinity ([3H]PGE2 binding assay)). Settings: [3H]PGE2 0.3 nM; membrane fraction of HEK293 cells expressing rat EP4; room temperature, 1 hour.
T1 construct: expressed in transfected cells; host or cells: HEK293
Procedure: Evaluation Test on Rat EP4 Receptor Affinity
Cell Culture and Transfection
Using a 10 cm collagen-coated dish (Asahi Glass), HEK293 cells were cultured in a D-MEM culture medium, the culture medium was removed at a confluence (90 to 100% density state) and washed with a phosphate-buffered saline (PBS), and then the cells were detached with N,N,N′,N′-tetrakis(carboxymethyl)ethylenediamine (EDTA). The number of the cells were counted and seeded on a 15 cm collagen-coated dish to a confluence of 70%. The next day, to an Opti-MEM culture medium at 1.2 mL/dish was added Lipofectamine 2000 (Invitrogen) at 60 μL/dish, followed by being left to stand at room temperature for 5 minutes. A plasmid in which a rat EP4 (sequence number 1) had been inserted into a TA cloning site of pcDNA3.1-V5-His-topo was added thereto at 15 μg/dish. After leaving it to stand at room temperature for 30 minutes, the resultant was added to the dish and cultured for 20 to 24 hours. The cell culture was carried out in a CO2 incubator (37° C., 5% CO2).
Preparation of Membrane Fraction
The culture medium was removed by suction, 10 mL of cooled PBS was added thereto per 15 cm dish, and the cells were scraped using a cell scraper (Sumitomo Bakelite). After washing with cooled PBS (1,200 rpm, 4° C., 5 min), and then suspended in 6 mL of cooled 20 mM Tris-HCl (pH 7.4; Nakalai Tesque Inc., including 5 mM EDTA (Nakalai Tesque Inc.) per dish and homogenized using a Polytron, the homogenate was centrifuged (26,000 rpm, 20 min, 4° C.). The obtained precipitate was resuspended in cooled 20 mM Tris-HCl and homogenized again using a Polytron, and the homogenate was centrifuged (26,000 rpm, 20 min, 4° C.). The obtained precipitate was resuspended in 50 mM HEPES (pH 7.5; Dojindo Laboratories) to 1 mL per dish, homogenized using a Polytron, and freeze-stored at −80° C. as a membrane fraction. At this time, a part thereof was used for the measurement of the protein concentration. Measurement of the protein concentration was carried out using a Bio-Rad Protein assay kit (Bio-Rad Laboratories) in accordance with the appended standard Protocol in duplicate.
[^3H] PGE2 μL (final concentration 0.3 nM; Perkin Elmer), 100 μL (20 μg/well) of a membrane fraction prepared from the rat EP4 expression cell and 50 μL of a test compound were mixed in a 96-well microplate (Sumitomo Bakelite), incubated at room temperature for 1 hour, filtered by suction on a UniFilter-96 GF/B (Perkin Elmer) using a FilterMate Harvester (Perkin Elmer), and then washed three times with 300 μL/well of a cooled assay buffer. Dilution of [^3H]PGE2 and the membrane fraction was carried out using an assay buffer (50 mM HEPES, 10 mM MgCl2), and dilution of the test compound and the unlabeled PGE2 was carried out using DMSO and the assay buffer. Further, in the case a human serum albumin (HSA) is added, dilution was carried out using an assay buffer containing 4% HSA (final concentration 1%; Sigma). The UniFilter-96 GF/B was treated by preliminarily washing twice with 200 μL/well of a cooled assay buffer. The UniFilter-96 GF/B after filtration was dried in a dryer overnight, 50 μL/well of MicroScint20 (Perkin Elmer) was added thereto, and then the radioactivity was measured using a TopCount (Perkin Elmer). For measurement of the non-specific binding, an unlabeled PGE2 (final concentration 1 μM; Cayman) was added. All of the measurements were carried out in duplicate, and the specific binding amount was determined by subtracting the non-specific binding amount from the total binding amount.
According to Test method as above, the rat EP4 receptor affinity (Ki) of the compound of the formula (I) was measured. Ex represents Example Compound number.

T1 sequence (P43114 whole entry): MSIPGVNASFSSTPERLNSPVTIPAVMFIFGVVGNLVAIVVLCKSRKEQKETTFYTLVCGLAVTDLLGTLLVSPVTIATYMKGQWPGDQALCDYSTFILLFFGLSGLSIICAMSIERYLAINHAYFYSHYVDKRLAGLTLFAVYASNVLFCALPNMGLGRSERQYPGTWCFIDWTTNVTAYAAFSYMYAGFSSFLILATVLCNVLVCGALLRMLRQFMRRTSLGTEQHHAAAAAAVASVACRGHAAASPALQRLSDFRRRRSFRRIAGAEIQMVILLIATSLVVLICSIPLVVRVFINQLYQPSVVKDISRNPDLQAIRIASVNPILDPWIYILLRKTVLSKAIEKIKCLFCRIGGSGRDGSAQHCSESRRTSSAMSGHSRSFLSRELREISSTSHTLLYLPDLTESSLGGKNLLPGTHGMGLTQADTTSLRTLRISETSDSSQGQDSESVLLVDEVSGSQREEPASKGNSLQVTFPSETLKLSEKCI

| Structure (SMILES) | Ki [nM] |
| --- | --- |
| O=C(O)c1ccc2c(ccn2NC(=O)c2ccccc2Cc2ccc(Cl)cc2)c1 [Example 4, 1-{[2-(4-chlorobenzyl)benzoyl]amino}-1H-indole-5-carboxylic acid] | 7.5 |
| C[C@H](NC(=O)c1sccc1N(C)Cc1ccc(Cl)cc1)c1ccc(C(=O)O)cc1 [Example 7] | 16 |
| CN(NC(=O)c1cccc2ccn(Cc3ccc(Cl)cc3)c12)c1ccc(C(=O)O)cc1 [Example 8] | 0.8 |
| C[C@H](NC(=O)c1cccc2ccn(Cc3ccc(Cl)cc3)c12)c1ccc(-c2noc(=O)[nH]2)cc1 [Example 15] | 3.5 |
| C[C@H](NC(=O)c1cc(Cl)cc2ccn(Cc3ccc(Cl)cc3)c12)c1ccc(C(=O)O)cc1 [Example 21] | 0.51 |
| C[C@H](NC(=O)c1cccc2c1N(Cc1ccc(Cl)cc1)CC2)c1ccc(C(=O)O)cc1 [Example 22] | 0.79 |
| CN(NC(=O)c1cc(Cl)cc2ccn(Cc3ccc(Cl)cc3)c12)c1ccc(C(=O)O)cc1 [Example 31] | 0.83 |
| C[C@H](NC(=O)c1cc2ccccc2n1Cc1ccc(Cl)cc1)c1ccc(C(=O)O)cc1 [Example 37] | 9.9 |
| C[C@H](NC(=O)c1cccn1Cc1ccc(Cl)cc1)c1ccc(C(=O)O)cc1 [Example 39] | 37 |
| C[C@H](NC(=O)c1cccc2nc(Nc3ccc(Cl)cc3)oc12)c1ccc(C(=O)O)cc1 [Example 46] | 11 |
| C[C@H](NC(=O)c1cccc2cnn(Cc3ccc(Cl)cc3)c12)c1ccc(C(=O)O)cc1 [Example 47] | 5.5 |
| C[C@H](NC(=O)c1ccccc1-n1ccc2cc(Cl)ccc21)c1ccc(C(=O)O)cc1 [Example 50] | 15 |
| C[C@H](NC(=O)c1cccc2ccn(Cc3ccc4ccccc4n3)c12)c1ccc(C(=O)O)cc1 [Example 57] | 1.6 |
| CC(NC(=O)c1cccc2ccn(Cc3ccc(Cl)cc3)c12)[C@H]1CC[C@H](C(=O)O)CC1 (stereo partly shown) [Example 61] | 12 |
| O=C(NCC1CCC(C(=O)O)CC1)c1cccc2ccn(Cc3ccc(Cl)cc3)c12 (stereo not shown) [Example 110] | 12 |
| O=C(O)c1ccc(CNC(=O)c2cccc3ccn(Cc4ccc(Cl)cc4)c23)cc1 [Example 111] | 2.6 |
